# Measured values taken from patent US6949536B2, “Sulfonylbenzene compounds as anti-inflammatory/analgesic agents” (Pfizer, Inc., priority 1998, dated 2005).
# Counter-ions that a name gives are not always drawn.
row,SMILES,melting point [°C]
1,"CCOC(=O)c1cc(-c2ccc(-c3ccco3)cc2)n(-c2ccc(S(C)(=O)=O)cc2)n1 [Example 65, Ethyl 5-[4-(2-furyl)phenyl]-1-[4-(methylsulfonyl)phenyl]-1H-pyrazole-3-carboxylate]",180.9 to 181.1
2,"CS(=O)(=O)c1ccc(-n2nc(C(F)(F)F)cc2-c2ccc(-c3ncco3)cc2)cc1 (as salt: hydrochloride) [Example 97, 2-{4-[1-[4-(Methylsulfonyl)phenyl]-3-(trifluoromethyl)-1H-pyrazol-5-yl]phenyl}-1,3-oxazole]",190 to 192
3,"Cc1cc(-n2c(C)ccc2-c2ccc(S(C)(=O)=O)cc2)ccc1-c1ccoc1 [Example 39, 1-[4-(3-Furyl)-3-methylphenyl]-2-methyl-5-[4-(methylsulfonyl)phenyl]-1H-pyrrole]",69 to 75
4,"Cc1ccc(-c2ccc(S(C)(=O)=O)cc2)n1-c1ccc(-c2nccs2)cc1 [Example 49, 2-Methyl-5-[4-(methylsulfonyl)phenyl]-1-[4-(2-thiazolyl)phenyl]-1H-pyrrole]",190 to 191
5,"CS(=O)(=O)c1ccc(-n2nc(C(F)(F)F)cc2-c2ccc(-c3ccoc3)cc2)cc1 [Example 20, 1-[4-(Methylsulfonyl)phenyl]-5-[4-(3-furyl)phenyl]-3-trifluoromethyl-1H-pyrazole]",165 to 166
6,"Cc1ccc(-c2ccc(S(C)(=O)=O)cc2)n1-c1ccc(-c2ccc[nH]2)cc1 [Example 47, 2-Methyl-5-[4-(methylsulfonyl)phenyl]-1-[4-(2-pyrrolyl)phenyl]-1H-pyrrole]",225 to 227
7,"Cc1ccc(-c2ccc(S(C)(=O)=O)cc2)n1-c1ccc(-c2ccco2)cc1 [Example 44, 1-[4-(2-Furyl)phenyl]-2-methyl-5-[4-(methylsulfonyl)phenyl]-1H-pyrrole]",145 to 147
8,"Cc1cc(-n2nc(C(F)(F)F)cc2-c2ccc(-c3cscn3)cc2)ccc1S(C)(=O)=O (as salt: hydrochloride) [Example 101, 4-{4-[1-[3-Methyl-4-(methylsulfonyl)phenyl]-3-(trifluoromethyl)-1H-pyrazol-5-yl]phenyl}-1,3-thiazole]",147 to 149
9,"CS(=O)(=O)c1ccc(-n2nc(C(F)(F)F)cc2-c2ccc(-c3nccs3)cc2)cc1 [Example 22, 1-[4-(Methylsulfonyl)phenyl]-5-[4-(2-thiazolyl)phenyl]-3-trifluoromethyl-1H-pyrazole]",206 to 207
10,"Cc1nc(-c2ccc(-c3cc(C(F)(F)F)nn3-c3ccc(S(C)(=O)=O)c(F)c3)cc2)cs1 [Example 102, 4-{4-[1-[3-Fluoro-4-(methylsulfonyl)phenyl]-3-(trifluoromethyl)-1H-pyrazol-5-yl]phenyl}-2-methyl-1,3-thiazole]",139 to 141
11,"Cc1cc(-c2ccc(S(C)(=O)=O)cc2)n(-c2ccc(-c3ccoc3)cc2)c1 [Example 55, 1-[4-(3-Furyl)phenyl]-4-methyl-2-[4-(methylsulfonyl)phenyl]-1H-pyrrole]",154 to 156
12,"CS(=O)(=O)c1ccc(-n2nc(C(F)(F)F)cc2-c2ccc(-c3ncco3)cc2)cc1F [Example 96, 2-{4-[1-[3-Fluoro-4-(methylsulfonyl)phenyl]-3-(trifluoromethyl)-1H-pyrazol-5-yl]phenyl}-1,3-oxazole]",140 to 142
13,"Cc1cc(-c2ccc(-c3ccoc3)cc2)n(-c2ccc(S(C)(=O)=O)cc2)c1 [Example 56, 2-[4-(3-Furyl)phenyl]-4-methyl-1-[4-(methylsulfonyl)phenyl]-1H-pyrrole]",193 to 195
14,"Cc1nc(-c2ccc(-c3ccco3)cc2)c(-c2ccc(S(C)(=O)=O)cc2)o1 [Example 51, 4-[4-(2-Furyl)phenyl]-2-methyl-5-[4-(methylsulfonyl)phenyl]oxazole]",143 to 144

# Other lines, results leading:
row,melting point [°C],SMILES
1,176 to 178,"CS(=O)(=O)c1ccc(-n2nc(C(F)(F)F)cc2-c2ccc(-c3cscn3)c(F)c2)cc1 (as salt: hydrochloride) [Example 124, 4-{2-Fluoro-4-[1-[4-(methylsulfonyl)phenyl]-3-(trifluoromethyl)-1H-pyrazol-5-yl]phenyl}-1,3-thiazole]"
2,168 to 170,"NS(=O)(=O)c1ccc(-n2nc(C(F)(F)F)cc2-c2ccc(-c3cscn3)cc2)cc1F (as salt: hydrochloride) [Example 103, 2-Fluoro-4-[5-[4-(1,3-thiazol-4-yl)phenyl]-3-(trifluoromethyl)-1H-pyrazol-1-yl]benzenesulfonamide]"
3,194.2,"NS(=O)(=O)c1ccc(C2=C(c3ccc(-c4cscn4)cc3)C(=O)OC2)cc1F [Example 167, 2-Fluoro-4-[5-oxo-4-[4-(1,3-thiazol-4-yl)phenyl]-2,5-dihydro-3-furanyl]benzenesulfonamide]"
4,128 to 130,"CS(=O)(=O)c1ccc(-n2nc(C(F)(F)F)cc2-c2ccc(-c3cscn3)c(Cl)c2)cc1 (as salt: hydrochloride) [Example 119, 4-{2-Chloro-4-[1-[4-(methylsulfonyl)phenyl]-3-(trifluoromethyl)-1H-pyrazol-5-yl]phenyl}-1,3-thiazole]"
5,131.9,"Cc1cc(-c2cscn2)ccc1-c1cc(C(F)(F)F)nn1-c1ccc(S(C)(=O)=O)c(F)c1 (as salt: methanesulfonate) [Example 187, 1-[3-Fluoro4-(methylsulfonyl)phenyl]-5-[2-methyl-4-(4-thiazolyl)phenyl]-3-trifluoromethyl-1H-pyrazole]"
6,103 to 107,"CS(=O)(=O)c1ccc(-n2nc(C(F)(F)F)cc2-c2ccc(-c3cscn3)cc2)cc1Cl [Example 158, 1-[3-Chloro-4-(methylsulfonyl)phenyl]-5-[4-(4-thiazolyl)phenyl]-3-trifluoromethyl-1H-pyrazole]"
7,215.8,"CC1(C)OC(=O)C(c2ccc(-c3cscn3)cc2)=C1c1ccc(S(C)(=O)=O)cc1 [Example 166, 5,5-Dimethyl-4-[4-(methylsulfonyl)phenyl]-3-[4-(1,3-thiazol-4-yl)phenyl]-2(5H)-furanone]"
8,192 to 194,"Cc1nc(-c2ccc(S(N)(=O)=O)c(F)c2)c(-c2ccc(-c3cscn3)cc2)o1 [Example 193, 2-fluoro-4-[2-methyl-5-[4-(1,3-thiazol-4-yl)phenyl]-1,3-oxazol-4-yl]benzenesulfonamide]"
9,122.9,"Cc1cc(-c2cc(C(F)F)nn2-c2ccc(S(C)(=O)=O)c(F)c2)ccc1-c1cscn1 [Example 194, 4-[4-[3-(Difluoromethyl)-1-[3-Fluoro-4-(methylsulfonyl)phenyl]-1H-pyrazol-5-yl]-2-methylphenyl]-1,3-thiazole]"
10,171.8,"NS(=O)(=O)c1ccc(-n2nc(C(F)(F)F)cc2-c2ccc(-c3ccco3)c(Cl)c2)cc1F [Example 138, 4-[5-[3-Chloro-4-(2-furyl)phenyl]-3-(trifluoromethyl)-1H-pyrazol-1-yl]-2-fluorobenzenesulfonamide]"
11,224 to 226,"NS(=O)(=O)c1ccc(-n2nc(C(F)(F)F)cc2-c2ccc(-c3cscn3)c(O)c2)cc1F (as salt: hydrochloride) [Example 174, 2-Fluoro-4-[5-[3-hydroxy-4-(1,3-thiazol-4-yl)phenyl]-3-(trifluoromethyl)-1H-pyrazol-1-yl]benzenesulfonamide]"
12,172,"CCOC(=O)c1cc(-c2ccc(-c3ccco3)cc2)n(-c2ccc(S(C)(=O)=O)c(F)c2)n1 [Example 126, Ethyl 1-[3-Fluoro-4-(methylsulfonyl)phenyl]-5-[4-(2-furyl)phenyl]-1H-pyrazole-3-carboxylate]"
13,140 to 142,"Cc1cc(-c2cc(C(F)(F)F)nn2-c2ccc(S(C)(=O)=O)cc2)ccc1-c1cscn1 (as salt: hydrochloride) [Example 125, 4-{2-Methyl-4-[1-[4-(methylsulfonyl)phenyl]-3-(trifluoromethyl)-1H-pyrazol-5-yl]phenyl}-1,3-thiazole]"
14,112 to 115,"Cc1onc(-c2ccc(-c3cscn3)cc2)c1-c1ccc(S(N)(=O)=O)cc1 [Example 171, 4-{5-Methyl-3-[4-(1,3-thiazol-4-yl)phenyl]-4-isoxazolyl}benzenesulfonamide]"
15,135 to 139,"Cc1cc(-n2nc(C(F)(F)F)cc2-c2ccc(-c3ccco3)cc2)ccc1S(C)(=O)=O (as salt: hydrochloride) [Example 157, 5-[4-(2-Furyl)phenyl]-1-[3-methyl-4-(methylsulfonyl)phenyl]-3-(trifluoromethyl)-1H-pyrazole]"
16,170 to 172,"NS(=O)(=O)c1ccc(-n2nc(C(F)(F)F)cc2-c2ccc(-c3cocn3)cc2)cc1 (as salt: hydrochloride) [Example 118, 4-[5-[4-(1,3-Oxazol-4-yl)phenyl]-3-(trifluoromethyl)-1H-pyrazol-1-yl]benzenesulfonamide]"
17,177 to 178,"Cc1nc(-c2ccc(-c3cscn3)c(C)c2)c(-c2ccc(S(C)(=O)=O)c(F)c2)o1 [Example 173, 5-[3-Fluoro-4-(methylsulfonyl)phenyl]-2-methyl-4-[3-methyl-4-(1,3-thiazol-4-yl)phenyl]-1,3-oxazole]"
18,151,"NS(=O)(=O)c1ccc(-n2nc(C(F)(F)F)cc2-c2ccc(-c3ccco3)cc2)cc1F (as salt: hydrochloride) [Example 137, 2-Fluoro-4-[5-[4-(2-furyl)phenyl]-3-(trifluoromethyl)-1H-pyrazol-1-yl]benzenesulfonamide]"
19,173 to 175,"NS(=O)(=O)c1ccc(-n2nc(C(F)(F)F)cc2-c2ccc(-c3cscn3)c(Cl)c2)cc1F (as salt: hydrochloride) [Example 122, 2-Fluoro-4-[5-[3-chloro-4-(1,3-thiazol-4-yl)phenyl]-3-(trifluoromethyl)-1H-pyrazol-1-yl]benzenesulfonamide]"
20,174.7,"Cc1cc(-c2cscn2)ccc1-c1cc(C(F)(F)F)nn1-c1ccc(S(C)(=O)=O)cc1 (as salt: methanesulfonate) [Example 186, 1-[4-(Methylsulfonyl)phenyl]-5-[2-methyl-4-(4-thiazolyl)phenyl]-3-trifluoromethyl-1H-pyrazole]"
21,236,"Cc1noc(-c2ccc(-c3cscn3)cc2)c1-c1ccc(S(N)(=O)=O)cc1 [Example 190, 4-[3-Methyl-5-[4-(1,3-thiazol-4-yl)phenyl]-4-isoxazolyl]benzenesulfonamide]"
